Data published in ChEMBL document CHEMBL3393000, “Synthesis and anticancer activity of some 8-substituted-7-methoxy-2H-chromen-2-one derivatives toward hepatocellular carcinoma HepG2 cells” (Eur J Med Chem, 2015).
Blank lines part the entries; values can stand above or below the molecule they belong to.

Columns and labels:
[1] = target: Telomerase reverse transcriptase (Homo sapiens) (UniProt O14746); assay: Inhibition of telomerase in human HepG2 cells at 1 to 4 uM after 1 to 3 days by TRAP-ELISA method; assay type: cell-based
Sequence of Telomerase reverse transcriptase (Homo sapiens) (O14746 whole entry): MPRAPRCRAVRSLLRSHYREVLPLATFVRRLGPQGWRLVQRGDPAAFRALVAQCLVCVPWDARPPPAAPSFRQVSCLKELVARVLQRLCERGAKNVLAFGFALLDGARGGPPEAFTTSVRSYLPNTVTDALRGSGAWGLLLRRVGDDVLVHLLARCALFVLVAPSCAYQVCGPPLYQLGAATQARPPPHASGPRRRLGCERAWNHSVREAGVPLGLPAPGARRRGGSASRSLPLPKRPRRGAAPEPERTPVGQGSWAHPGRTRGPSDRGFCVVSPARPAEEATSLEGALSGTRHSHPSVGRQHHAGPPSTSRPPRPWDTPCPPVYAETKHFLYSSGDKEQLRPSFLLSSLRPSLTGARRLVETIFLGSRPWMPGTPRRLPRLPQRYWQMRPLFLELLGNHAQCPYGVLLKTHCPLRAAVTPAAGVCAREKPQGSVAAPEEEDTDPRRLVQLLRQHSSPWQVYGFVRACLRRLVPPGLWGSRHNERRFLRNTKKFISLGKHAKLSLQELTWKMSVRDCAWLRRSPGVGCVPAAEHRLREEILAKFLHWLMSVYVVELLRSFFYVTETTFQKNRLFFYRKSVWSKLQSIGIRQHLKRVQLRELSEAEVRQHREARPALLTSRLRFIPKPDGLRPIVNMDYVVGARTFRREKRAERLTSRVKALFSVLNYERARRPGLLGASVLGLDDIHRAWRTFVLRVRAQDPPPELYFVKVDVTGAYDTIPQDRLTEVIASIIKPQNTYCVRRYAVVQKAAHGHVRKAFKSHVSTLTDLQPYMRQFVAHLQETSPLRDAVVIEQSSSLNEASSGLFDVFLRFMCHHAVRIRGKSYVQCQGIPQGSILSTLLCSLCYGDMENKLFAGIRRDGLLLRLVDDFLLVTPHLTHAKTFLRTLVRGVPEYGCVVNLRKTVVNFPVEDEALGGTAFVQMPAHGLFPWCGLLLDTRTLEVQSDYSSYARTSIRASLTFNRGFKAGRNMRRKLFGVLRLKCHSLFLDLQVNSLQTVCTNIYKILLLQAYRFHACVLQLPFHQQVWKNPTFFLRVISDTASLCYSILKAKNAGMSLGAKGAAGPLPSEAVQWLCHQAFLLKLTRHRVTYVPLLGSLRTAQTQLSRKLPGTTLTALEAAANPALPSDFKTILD

[2] = target: Telomerase reverse transcriptase (Homo sapiens) (UniProt O14746); assay: Inhibition of telomerase in human HepG2 cells at 1 uM after 3 days by TRAP-ELISA method; assay type: cell-based
[3] = target: Telomerase reverse transcriptase (Homo sapiens) (UniProt O14746); assay: Inhibition of telomerase in human HepG2 cells at 2 uM after 1 day by TRAP-ELISA method; assay type: cell-based
[4] = target: Telomerase reverse transcriptase (Homo sapiens) (UniProt O14746); assay: Inhibition of telomerase in human HepG2 cells at 4 uM after 2 days by TRAP-ELISA method; assay type: cell-based
[5] = target: Telomerase reverse transcriptase (Homo sapiens) (UniProt O14746); assay: Inhibition of telomerase in human HepG2 cells at 1 uM after 2 days by TRAP-ELISA method; assay type: cell-based
[6] = target: Telomerase reverse transcriptase (Homo sapiens) (UniProt O14746); assay: Inhibition of telomerase in human HepG2 cells at 4 uM after 1 day by TRAP-ELISA method; assay type: cell-based
[7] = target: Telomerase reverse transcriptase (Homo sapiens) (UniProt O14746); assay: Inhibition of telomerase in human HepG2 cells at 4 uM after 3 days by TRAP-ELISA method; assay type: cell-based
[8] = target: Telomerase reverse transcriptase (Homo sapiens) (UniProt O14746); assay: Inhibition of telomerase in human HepG2 cells at 1 uM after 1 day by TRAP-ELISA method; assay type: cell-based
[9] = target: Telomerase reverse transcriptase (Homo sapiens) (UniProt O14746); assay: Inhibition of telomerase in human HepG2 cells at 2 uM after 2 days by TRAP-ELISA method; assay type: cell-based
[10] = target: Telomerase reverse transcriptase (Homo sapiens) (UniProt O14746); assay: Inhibition of telomerase in human HepG2 cells at 2 uM after 3 days by TRAP-ELISA method; assay type: cell-based
HepG2 [11] = assay: Cytotoxicity against human HepG2 cells assessed as reduction in cell viability after 72 hrs by MTT assay; assay type: functional, cell-based; conditions: HepG2, 72 h
HepG2 [12] = assay: Induction of apoptosis in human HepG2 cells at 0.01 to 0.08 umol/ml after 24 hrs by annexin V-FITC/propidium iodide staining based flow cytometry; assay type: functional, cell-based
HepG2 [13] = assay: Induction of apoptosis in human HepG2 cells at 0.04 umol/ml after 24 hrs by annexin V-FITC/propidium iodide staining based flow cytometry (reference value: 0.54%); assay type: functional
HepG2 [14] = assay: Induction of apoptosis in human HepG2 cells at 0.02 umol/ml after 24 hrs by annexin V-FITC/propidium iodide staining based flow cytometry (reference value: 0.54%); assay type: functional
HepG2 [15] = assay: Induction of apoptosis in human HepG2 cells at 0.01 umol/ml after 24 hrs by annexin V-FITC/propidium iodide staining based flow cytometry (reference value: 0.54%); assay type: functional
HepG2 [16] = assay: Induction of apoptosis in human HepG2 cells at 0.08 umol/ml after 24 hrs by annexin V-FITC/propidium iodide staining based flow cytometry (reference value: 0.54%); assay type: functional

- inhibition [1]: Dose-dependent effect
- inhibition [2]: 26.1%
- inhibition [3]: 20.1%
- inhibition [4]: 56.6%
- inhibition [5]: 19.4%
- inhibition [6]: 28%
- inhibition [7]: 68.3%
- inhibition [8]: 16.8%
- inhibition [9]: 30%
- inhibition [10]: 40.3%
Structure (SMILES): COc1ccc2ccc(=O)oc2c1C1=NN(c2ccccc2)C(c2cccs2)C1 (configuration not stated)
- IC50 (HepG2 [11]): 15 nM

Structure (SMILES): COc1ccc2ccc(=O)oc2c1C1=NN(c2ccccc2)C(c2ccc(C(F)(F)F)cc2)C1 (configuration not stated)
- IC50 (HepG2 [11]): 38 nM

Structure (SMILES): COc1ccc2ccc(=O)oc2c1C1=NNC(c2ccc(C)cc2)C1 (configuration not stated)
- IC50 (HepG2 [11]): 43 nM

Structure (SMILES): COc1ccc2ccc(=O)oc2c1C1=NN(C(C)=O)C(c2ccccc2)C1 (configuration not stated)
- IC50 (HepG2 [11]): 52 nM

Structure (SMILES): COc1ccc2ccc(=O)oc2c1C1=NN(C(N)=O)C(c2cccs2)C1 (configuration not stated)
- IC50 (HepG2 [11]): 26 nM

Structure (SMILES): COc1ccc2ccc(=O)oc2c1C(/C=C/c1ccc(C)cc1)=N/NC(N)=O
- IC50 (HepG2 [11]): 93 nM

Structure (SMILES): COc1ccc2ccc(=O)oc2c1C1=NN(c2ccccc2)C(c2ccc(C)cc2)C1 (configuration not stated)
- IC50 (HepG2 [11]): 51 nM

Structure (SMILES): COc1ccc2ccc(=O)oc2c1C(/C=C/c1cccs1)=N/NC(N)=O
- IC50 (HepG2 [11]): 75 nM

Structure (SMILES): COc1ccc2ccc(=O)oc2c1C1=NN(C(C)=O)C(c2ccc(C)cc2)C1 (configuration not stated)
- IC50 (HepG2 [11]): 50 nM

Structure (SMILES): COc1ccc2ccc(=O)oc2c1C1=NN(c2ccccc2)C(c2ccccc2)C1 (configuration not stated)
- IC50 (HepG2 [11]): 73 nM

Structure (SMILES): COc1ccc2ccc(=O)oc2c1CC=C(C)C [OSTHOLE]
- IC50 (HepG2 [11]): 161000 nM

- inhibition [1]: Dose-dependent effect
- inhibition [2]: 28.9%
- inhibition [3]: 22.3%
- inhibition [4]: 62.6%
- inhibition [5]: 21.5%
- inhibition [6]: 31%
- inhibition [7]: 75.5%
- inhibition [8]: 18.6%
- inhibition [9]: 33.1%
- inhibition [10]: 44.6%
Structure (SMILES): COc1ccc2ccc(=O)oc2c1C1=NNC(c2cccs2)C1 (configuration not stated)
- IC50 (HepG2 [11]): 11 nM

Structure (SMILES): COc1ccc2ccc(=O)oc2c1C1=NN(C(C)=O)C(c2ccc(SC)cc2)C1 (configuration not stated)
- IC50 (HepG2 [11]): 42 nM

Structure (SMILES): COc1ccc2ccc(=O)oc2c1C1=NN(c2ccccc2)C(c2ccc(SC)cc2)C1 (configuration not stated)
- IC50 (HepG2 [11]): 78 nM

Structure (SMILES): COc1ccc2ccc(=O)oc2c1C1=NN(C(C)=O)C(c2cccs2)C1 (configuration not stated)
- IC50 (HepG2 [11]): 75 nM

Structure (SMILES): COc1ccc2ccc(=O)oc2c1C1=NN(C(C)=O)C(c2ccc(C(F)(F)F)cc2)C1 (configuration not stated)
- IC50 (HepG2 [11]): 80 nM

Structure (SMILES): COc1ccc2ccc(=O)oc2c1C1=NNC(c2ccccc2)C1 (configuration not stated)
- IC50 (HepG2 [11]): 48 nM

- inhibition [1]: Dose-dependent effect
- inhibition [2]: 30.1%
- inhibition [3]: 23.2%
- inhibition [4]: 65.2%
- inhibition [5]: 22.4%
- inhibition [6]: 32.3%
- inhibition [7]: 78.6%
- inhibition [8]: 19.4%
- inhibition [9]: 34.5%
- inhibition [10]: 46.4%
Structure (SMILES): COc1ccc2ccc(=O)oc2c1C1=NNC(c2ccc(SC)cc2)C1 (configuration not stated)
- Activity (HepG2 [12]): Dose-dependent effect
- Activity (HepG2 [13]): 40.96%
- Activity (HepG2 [14]): 35%
- Activity (HepG2 [15]): 25.45%
- IC50 (HepG2 [11]): 10 nM
- Activity (HepG2 [16]): 46.85%

- inhibition [1]: Dose-dependent effect
- inhibition [2]: 27.2%
- inhibition [3]: 21%
- inhibition [4]: 59%
- inhibition [5]: 20.2%
- inhibition [6]: 29.2%
- inhibition [7]: 71.1%
- inhibition [8]: 17.5%
- inhibition [9]: 31.2%
- inhibition [10]: 42%
Structure (SMILES): COc1ccc2ccc(=O)oc2c1C1=NNC(c2ccc(C(F)(F)F)cc2)C1 (configuration not stated)
- IC50 (HepG2 [11]): 13 nM

Structure (SMILES): COc1ccc2ccc(=O)oc2c1C1=NN(C(N)=O)C(c2ccccc2)C1 (configuration not stated)
- IC50 (HepG2 [11]): 90 nM

Structure (SMILES): COc1ccc2ccc(=O)oc2c1C(/C=C/c1ccc(SC)cc1)=N/NC(N)=O
- IC50 (HepG2 [11]): 99 nM

Structure (SMILES): COc1ccc2ccc(=O)oc2c1C(/C=C/c1ccccc1)=N/NC(N)=O
- IC50 (HepG2 [11]): 82 nM

Structure (SMILES): COc1ccc2ccc(=O)oc2c1C1=NN(C(N)=O)C(c2ccc(C(F)(F)F)cc2)C1 (configuration not stated)
- IC50 (HepG2 [11]): 96 nM

- inhibition [1]: Dose-dependent effect
- inhibition [2]: 23.6%
- inhibition [3]: 18.2%
- inhibition [4]: 51.2%
- inhibition [5]: 17.6%
- inhibition [6]: 25.3%
- inhibition [7]: 61.7%
- inhibition [8]: 15.2%
- inhibition [9]: 27.1%
- inhibition [10]: 36.5%
Structure (SMILES): COc1ccc2ccc(=O)oc2c1C1=NN(C(N)=O)C(c2ccc(SC)cc2)C1 (configuration not stated)
- IC50 (HepG2 [11]): 18 nM

Structure (SMILES): COc1cccc2c1C(=O)c1c(O)c3c(c(O)c1C2=O)C[C@@](O)(C(=O)CO)C[C@@H]3O[C@H]1C[C@H](N)[C@H](O)[C@H](C)O1 [DOXORUBICIN]
- IC50 (HepG2 [11]): 630 nM

Structure (SMILES): CN[C@@H]1C[C@H]2O[C@@](C)([C@@H]1OC)n1c3ccccc3c3c4c(c5c6ccccc6n2c5c31)C(=O)NC4
- inhibition [1]: Dose-dependent effect
- inhibition [2]: 15.4%
- inhibition [3]: 12.7%
- inhibition [4]: 40.1%
- inhibition [5]: 11.3%
- inhibition [6]: 30.1%
- inhibition [7]: 56.5%
- inhibition [8]: 10.7%
- inhibition [9]: 18.9%
- inhibition [10]: 28.7%

Structure (SMILES): COc1ccc2ccc(=O)oc2c1C(/C=C/c1ccc(C(F)(F)F)cc1)=N/NC(N)=O
- IC50 (HepG2 [11]): 96 nM

Structure (SMILES): COc1ccc2ccc(=O)oc2c1C1=NN(C(N)=O)C(c2ccc(C)cc2)C1 (configuration not stated)
- IC50 (HepG2 [11]): 46 nM
